Laboratory results from patent US12138246B2, “Treatments with nirogacestat” (SpringWorks Therapeutics, Inc., priority 2022, dated 2024).
Where a name gives a salt, the structure may show the parent alone.

What was measured:
[1] = system: progressing desmoid tumors/aggressive fibromatosis (DT/AF); type: in vivo
Source text: A Phase 3, double-blind, placebo-controlled study is being conducted to determine the efficacy and safety of nirogacestat dihydrobromide in participants with progressing desmoid tumors. A Phase 1 solid tumor study provided preliminary efficacy (Messersmith, W., et al., “A Phase I, dose-finding study in patients with advanced solid malignancies of the oral γ-secretase inhibitor PF-03084014,” Clin. Cancer Res., 21:60-7 (2015)), including long-term durable responses and safety of nirogacestat in desmoid participants (Villalobos, V. M., et al., “Long-Term Follow-Up of Desmoid Fibromatosis Treated with PF-03084014, an Oral Gamma Secretase Inhibitor, Ann. Surg. Oncol., 25:768-75 (2018)). These encouraging results lead to a Phase 2 study in participants with progressing desmoid tumors (Kummar, S., et al., “Clinical Activity of the γ-Secretase Inhibitor PF-03084014 in Adults with Desmoid Tumors (Aggressive Fibromatosis), J. Clin. Oncol., 35:1561-69 (2017)). […] Importantly, participants in the responder group had failed previous systemic therapies (imatinib or sorafenib) indicating a need for alterative therapeutic options for this patient population.
Overall Design: The Phase 3 study will be a multi-center, randomized, double-blind, placebo-controlled, event-driven to compare the efficacy, safety, and tolerability of nirogacestat and placebo in adult participants with progressing DT/AF. This study will consist of 2 phases, a double-blind and an optional open-label extension (OLE) phase.
Following disease progression (confirmed by central review using RECIST v1.1), or completion of the double-blind phase (once the required number of events have been observed and the primary PFS analysis has been completed), participants' treatment assignment will be unblinded, and if eligible, participants will have the option to enroll in the optional OLE phase.
• 1. Participant has DT/AF that has progressed by ≥20% as measured by RECIST v1.1 within the 12-month period prior to first dose of study treatment. • 2. Participant has: • a. Newly diagnosed, measurable progressing DT/AF that is not amenable to surgical resection or radiation therapy; • OR • b. Recurrent, progressing DT/AF following CR to initial therapy; • OR • c. Preexisting DT/AF and has previously received therapy and the residual tumor has progressed. • 3. Participant agrees to provide archival or new tumor tissue for confirmation of disease. • 4. If participant was previously treated with an investigational therapy for treatment of DT/AF, participant must have completed prior therapy at least 28 days prior to signing informed consent. All toxicities from prior therapy must resolve to ≤Grade 1 or baseline. • 5. Participants who are receiving nonsteroidal anti-inflammatory drugs (NSAIDs) as treatment for conditions other than DT/AF must be receiving them prior to the observed progression (inclusion criteria 1) for: • a. Chronic scheduled daily use (defined as stable for 28 days prior to signing informed consent); or • b. Occasional use (defined as ≤3 days per week) for the treatment of pain or as an anti-inflammatory in licensed conditions such as headache, arthritis, etc. • c. Participant has an Eastern Cooperative Oncology Group (ECOG) performance status ≤2 at screening. • 6. Participant has adequate organ and bone marrow function as defined by the following Screening laboratory values: • a. Absolute neutrophil count ≥1500/μL; • b. Platelets ≥100×10^3/μL; • c. Hemoglobin ≥9 g/dL; • d. Total bilirubin ≤1.5× upper limit of normal (ULN) (isolated bilirubin >1.5×ULN is acceptable if bilirubin is fractionated and direct bilirubin <35%); • e. Aspartate aminotransferase (AST) (serum glutamic oxaloacetic transaminase)/alanine aminotransferase (ALT) (serum glutamic pyruvate transaminase)≤2×ULN; and • f. […] Participant can swallow tablets and has no gastrointestinal conditions affecting absorption. […]

[2] = system: progressing desmoid tumors; conditions: Phase 2, participants with progressing desmoid tumors; cited from earlier work
[3] = Pharmacokinetic parameters for single oral doses; type: in vivo, human
[4] = intent-to-treat population, n = 70
[5] = Min, COHORT 1: 150 mg (3 × 50 mg), Period 1

In the case of CCC[C@H](N[C@H]1CCc2cc(F)cc(F)c2C1)C(=O)Nc1cn(C(C)(C)CNCC(C)(C)C)cn1 (single isomer, unassigned) [nirogacestat], the “most frequent adverse reactions requiring a dose reduction or interruption” value ([1]; in vivo) is reported as “diarrhea, rash maculo-papular, hypophosphatemia, stomatitis, folliculitis, and fatigue”, the “Best overall response, n (%): Complete response” value [1, 4] is reported as 5 (7) n (%) and the “Best overall response, n (%): Not evaluable” value [1, 4] is reported as 4 (6) n (%). For the same compound, the “Best overall response, n (%): Partial response” value [1, 4] was 24 (34) n (%), the “Best overall response, n (%): Progressive disease” value [1, 4] was 1 (1) n (%) and the “Best overall response, n (%): Stable disease” value [1, 4] was 35 (50) n (%). For the same compound, the “Disease control rate, n (%)” value [1, 4] was 64 (91) n (%), the “Time to response, months, median (range)” value [1, 4] was 5.6 (2.6, 19.4) months and the “progression-free survival (PFS), hazard ratio (HR)” value ([1]; nirogacestat over placebo, 150 mg twice daily, p<0.001) was 0.29. The “progression while on therapy” value [2] was “no participants progressing while on therapy”.
Compound CCC[C@H](N[C@H]1CCc2cc(F)cc(F)c2C1)C(=O)Nc1cn(C(C)(C)CNCC(C)(C)C)cn1 [nirogacestat dihydrobromide] has a CL/F ([3]; Max, COHORT 1: 150 mg (1 × 150 mg), Period 2) of 82.0 L/h, a Half-life ([3]; Max, COHORT 1: 150 mg (3 × 50 mg), Period 1) of 32.0 h and a CL/F ([3]; Max, COHORT 3: 50 mg, Period 1) of 660 L/h. For the same compound, the CL/F ([3]; Median, COHORT 1: 150 mg (3 × 50 mg), Period 1) was 57.0 L/h, the AUCinf [3, 5] was 2160 ng·h/mL and the AUClast [3, 5] was 2080 ng·h/mL.
